Test results published in patent US6914045B2, “Glycopeptide antibiotics” (Wyeth Holdings Corporation, priority 2001, dated 2005).
Values after ≈ are worked out from the molar mass of the structure shown.

Assays:
[1] = tested on: Escherichia coli; assay: in vitro antibacterial evaluation, MIC by broth dilution; format: cell-based; conditions: 18 hours at 35° C.
In short: (§1)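 Following National Committee for Clinical Laboratory Standards recommendations (M7-A2), susceptibility was measured by dilution in Muller-Hinton II […]. Bacteria were seeded at 5×10^5 CFU/mL against compound concentrations from 64 down to 0.06 μg/mL.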

[2] = tested on: Staphylococcus sp.; assay: as above; format: cell-based; conditions: broth dilution, 18 hours at 35° C.
In short: as §1

[3] = tested on: Streptococcus sp.; assay: as above; format: cell-based; conditions: broth dilution, 18 hours at 35° C.
In short: as §1

[4] = tested on: Enterococcus sp.; assay: as above; format: cell-based; conditions: broth dilution, 18 hours at 35° C.
In short: as §1

[5] = tested on: Enterococcus faecalis (GC 6189); assay: acute lethal infection in mice; format: in vivo; conditions: female CD-1 mice, intraperitoneal challenge, intravenous 30 min. after infection, 7 day survival
In short: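 Female CD-1 mice (20±2 g) got an intraperitoneal bacterial challenge lethal to untreated controls within 24–48 hr. Compound was dosed intravenously 30 min after infection, five mice per dose. ED50 was calculated from 7-day survival pooled across 3 tests.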

With CCC(CC)C1OCC2OC(OC3C(CO)OC(Oc4ccc(CC5NC(=O)C(C(C)c6ccccc6)NC(=O)CNC(=O)C(CO)NC(=O)C(C(O)C6CNC(=N)N6C6OC(CO)C(O)C(O)C6O)NC(=O)C(C(O)C6CNC(=N)N6)NC5=O)cc4)C(O)C3O)C(O)C(O)C2O1 (stereo not drawn) [Example 116, Cyclo[glycyl-β-methylphenylalanyl-O-[4-O-[4,6-O-(2-ethylbutylidene)hexopyranosyl]-hexopyranosyl]tyrosyl-3-(2-iminoimidazolidin-4-yl)seryl-3-(3-hexopyranosvl-2-iminoimidazolidin-4-yl)serylseryl]] the “MIC Escherichia coli (ATCC 25922)” value ([1]; strain ATCC 25922) was 32 µg/mL (≈ 23.2 µM), the “MIC Escherichia coli (GC 4559)” value ([1]; strain GC 4559) was 64 µg/mL (≈ 46.5 µM) and the “MIC Escherichia coli (GC 4560)” value ([1]; strain GC 4560) was 1 µg/mL (≈ 0.726 µM). The “MIC Coagulase Negative Staphylococcus (GC 4547)” value [2] was 1 µg/mL (≈ 0.726 µM), the “MIC Coagulase Negative Staphylococcus (GC 4548)” value [2] was 1 µg/mL (≈ 0.726 µM) and the “MIC Coagulase Negative Staphylococcus (GC 4549)” value [2] was 1 µg/mL (≈ 0.726 µM). For the same compound, the “MIC Coagulase Negative Staphylococcus (GC 4551)” value [2] was 1 µg/mL (≈ 0.726 µM), the “MIC Coagulase Negative Staphylococcus (GC 6257)” value [2] was 0.5 µg/mL (≈ 0.363 µM) and the “MIC Staphylococcus aureus (ATCC 29213)” value [2] was 1 µg/mL (≈ 0.726 µM). The “MIC Staphylococcus aureus (GC 1131)” value [2] was 1 µg/mL (≈ 0.726 µM), the “MIC Staphylococcus aureus (GC 3051)” value [2] was 1 µg/mL (≈ 0.726 µM) and the “MIC Staphylococcus aureus (GC 3053)” value [2] was 1 µg/mL (≈ 0.726 µM). For the same compound, the “MIC Staphylococcus aureus (GC 4541)” value [2] was 1 µg/mL (≈ 0.726 µM), the “MIC Staphylococcus aureus (GC 4542)” value [2] was 0.5 µg/mL (≈ 0.363 µM) and the “MIC Staphylococcus aureus (GC 4544)” value [2] was 1 µg/mL (≈ 0.726 µM). For the same compound, the “MIC Staphylococcus aureus (GC 4545)” value [2] was 1 µg/mL (≈ 0.726 µM), the “MIC Staphylococcus aureus-SMITH (GC 4543)” value [2] was 1 µg/mL (≈ 0.726 µM) and the “MIC Staphylococcus haemolyticus (GC 4546)” value [2] was 0.5 µg/mL (≈ 0.363 µM). For the same compound, the “MIC Staphylococcus aureus (GC 1131)” value ([2]; inoculum 5×10^5 CFU/mL, strain GC 1131) was 1 µg/mL (≈ 0.726 µM), the “MIC Staphylococcus aureus (ATCC 29213)” value ([2]; strain ATCC 29213) was 1 µg/mL (≈ 0.726 µM) and the “MIC Staphylococcus aureus (GC 3051)” value ([2]; strain GC 3051) was 1 µg/mL (≈ 0.726 µM). For the same compound, the “MIC Staphylococcus aureus (GC 3053)” value ([2]; strain GC 3053) was 1 µg/mL (≈ 0.726 µM), the “MIC Staphylococcus aureus (GC 4541)” value ([2]; strain GC 4541) was 1 µg/mL (≈ 0.726 µM) and the “MIC Staphylococcus aureus (GC 4542)” value ([2]; strain GC 4542) was 0.5 µg/mL (≈ 0.363 µM). The “MIC Staphylococcus aureus (GC 4544)” value ([2]; strain GC 4544) was 1 µg/mL (≈ 0.726 µM), the “MIC Staphylococcus aureus (GC 4545)” value ([2]; strain GC 4545) was 1 µg/mL (≈ 0.726 µM) and the “MIC Staphylococcus haemolyticus (GC 4546)” value ([2]; strain GC 4546) was 0.5 µg/mL (≈ 0.363 µM). For the same compound, the “MIC Coagulase Negative Staphylococcus (GC 4547)” value ([2]; strain GC 4547) was 1 µg/mL (≈ 0.726 µM), the “MIC Coagulase Negative Staphylococcus (GC 4548)” value ([2]; strain GC 4548) was 1 µg/mL (≈ 0.726 µM) and the “MIC Coagulase Negative Staphylococcus (GC 4549)” value ([2]; strain GC 4549) was 1 µg/mL (≈ 0.726 µM). The “MIC Coagulase Negative Staphylococcus (GC 4551)” value ([2]; strain GC 4551) was 1 µg/mL (≈ 0.726 µM), the “MIC Coagulase Negative Staphylococcus (GC 6257)” value ([2]; strain GC 6257) was 0.5 µg/mL (≈ 0.363 µM) and the “MIC Staphylococcus aureus-SMITH (GC 4543)” value ([2]; strain SMITH GC 4543) was 1 µg/mL (≈ 0.726 µM). The “MIC Streptococcus agalactiae (GC 4564)” value ([3]; Streptococcus agalactiae (GC 4564)) was 0.25 µg/mL (≈ 0.181 µM), the “MIC Streptococcus pneumoniae (ATCC 6301)” value ([3]; Streptococcus pneumoniae (ATCC 6301)) was under 0.06 µg/mL and the “MIC Streptococcus pneumoniae (GC 1894)” value ([3]; Streptococcus pneumoniae (GC 1894)) was under 0.06 µg/mL. For the same compound, the “MIC Streptococcus pneumoniae (GC 4565)” value ([3]; Streptococcus pneumoniae (GC 4565)) was under 0.06 µg/mL, the “MIC Streptococcus pyogenes (GC 4563)” value ([3]; Streptococcus pyogenes (GC 4563)) was 0.25 µg/mL (≈ 0.181 µM) and the “MIC Streptococcus pneumoniae (ATCC 6301)” value ([3]; strain ATCC 6301) was under 0.06 µg/mL. The “MIC Streptococcus pneumoniae (GC 1894)” value ([3]; strain GC 1894) was under 0.06 µg/mL, the “MIC Streptococcus pyogenes (GC 4563)” value ([3]; strain GC 4563) was 0.25 µg/mL (≈ 0.181 µM) and the “MIC Streptococcus agalactiae (GC 4564)” value ([3]; strain GC 4564) was 0.25 µg/mL (≈ 0.181 µM). The “MIC Streptococcus pneumoniae (GC 4565)” value ([3]; strain GC 4565) was under 0.06 µg/mL, the “MIC Enterococcus avium (GC 4558)” value ([4]; Enterococcus avium (GC 4558)) was 2 µg/mL (≈ 1.45 µM) and the “MIC Enterococcus faecalis (ATCC 29212)” value ([4]; Enterococcus faecalis (ATCC 29212)) was 2 µg/mL (≈ 1.45 µM). The “MIC Enterococcus faecalis (GC 2242)” value ([4]; Enterococcus faecalis (GC 2242)) was 2 µg/mL (≈ 1.45 µM), the “MIC Enterococcus faecalis (GC 2691)” value ([4]; Enterococcus faecalis (GC 2691)) was 2 µg/mL (≈ 1.45 µM) and the “MIC Enterococcus faecalis (GC 3059)” value ([4]; Enterococcus faecalis (GC 3059)) was 2 µg/mL (≈ 1.45 µM). The “MIC Enterococcus faecalis (GC 4552)” value ([4]; Enterococcus faecalis (GC 4552)) was 2 µg/mL (≈ 1.45 µM), the “MIC Enterococcus faecalis (GC 4553)” value ([4]; Enterococcus faecalis (GC 4553)) was 2 µg/mL (≈ 1.45 µM) and the “MIC Enterococcus faecalis (GC 4554)” value ([4]; Enterococcus faecalis (GC 4554)) was 2 µg/mL (≈ 1.45 µM). The “MIC Enterococcus faecalis (GC 6189)” value ([4]; Enterococcus faecalis (GC 6189)) was 2 µg/mL (≈ 1.45 µM), the “MIC Enterococcus faecium (GC 2243)” value ([4]; Enterococcus faecium (GC 2243)) was 2 µg/mL (≈ 1.45 µM) and the “MIC Enterococcus faecium (GC 4556)” value ([4]; Enterococcus faecium (GC 4556)) was 2 µg/mL (≈ 1.45 µM). For the same compound, the “MIC Enterococcus faecium (GC 4557)” value ([4]; Enterococcus faecium (GC 4557)) was 2 µg/mL (≈ 1.45 µM), the “MIC Enterococcus faecalis (ATCC 29212)” value ([4]; strain ATCC 29212) was 2 µg/mL (≈ 1.45 µM) and the “MIC Enterococcus faecalis (GC 2242)” value ([4]; strain GC 2242) was 2 µg/mL (≈ 1.45 µM). The “MIC Enterococcus faecium (GC 2243)” value ([4]; strain GC 2243) was 2 µg/mL (≈ 1.45 µM), the “MIC Enterococcus faecalis (GC 2691)” value ([4]; strain GC 2691) was 2 µg/mL (≈ 1.45 µM) and the “MIC Enterococcus faecalis (GC 3059)” value ([4]; strain GC 3059) was 2 µg/mL (≈ 1.45 µM). The “MIC Enterococcus faecalis (GC 4552)” value ([4]; strain GC 4552) was 2 µg/mL (≈ 1.45 µM), the “MIC Enterococcus faecalis (GC 4553)” value ([4]; strain GC 4553) was 2 µg/mL (≈ 1.45 µM) and the “MIC Enterococcus faecalis (GC 4554)” value ([4]; strain GC 4554) was 2 µg/mL (≈ 1.45 µM). For the same compound, the “MIC Enterococcus faecium (GC 4556)” value ([4]; strain GC 4556) was 2 µg/mL (≈ 1.45 µM), the “MIC Enterococcus faecium (GC 4557)” value ([4]; strain GC 4557) was 2 µg/mL (≈ 1.45 µM) and the “MIC Enterococcus avium (GC 4558)” value ([4]; strain GC 4558) was 2 µg/mL (≈ 1.45 µM). The “MIC Enterococcus faecalis (GC 6189)” value ([4]; strain GC 6189) was 2 µg/mL (≈ 1.45 µM) and the median effective dose (ED50), Enterococcus faecalis (GC 6189) [5] was 0.46 mg/kg.
